# Laboratory results taken from patent publication US5786348A, “Methods for preparation and use of 1α,24(S)-dihydroxy vitamin D2” (priority 1995, dated 1998).
# Entries after “also recorded” stand apart in the source; their conditions may differ.
# How the values were obtained:
# [1] = Dose ranging study in postmenopausal osteoporotic women; type: in vivo, human; conditions: oral 0.5 to 8.0 μg/day, rising weekly over five weeks
# Method: Twenty postmenopausal osteoporotic women are enrolled in an open label study.
# On admission to the study, all patients receive instruction on selecting a daily diet containing 400 to 600 mg of calcium. Compliance to this diet is verified at weekly intervals by 24-hour food records and by interviews with each patient.
# All patients complete a one-week baseline period, a five-week treatment period, and a one-week post-treatment observation period. During the treatment period, patients orally self-administer 1α,24(S)-dihydroxyvitamin D2 at an initial dose of 0.5 μg/day for the first week, and at successively higher doses of 1.0, 2.0, 4.0, and 8.0 μg/day in each of the following four weeks. All doses are administered before breakfast.
# Blood and urine chemistries are monitored on a weekly basis throughout the study. Key blood chemistries include fasting serum levels of calcium, phosphorus, osteocalcin, creatinine, and blood urea nitrogen. Key urine chemistries include 24-hour excretion of calcium, phosphorus, and creatinine.
# bovine thymus VDR = target: T1, bovine thymus VDR (Bos taurus, UniProt Q28037); experiment: Radioreceptor assay with bovine thymus VDR (Incstar), displacement of 3H-1α,25-(OH)2 D3; type: binding
# T1 construct: commercially available kit of bovine thymus VDR; purchased Incstar (Stillwater, Minn.); host or cells: bovine thymus
# T1 sequence (Q28037 1-426): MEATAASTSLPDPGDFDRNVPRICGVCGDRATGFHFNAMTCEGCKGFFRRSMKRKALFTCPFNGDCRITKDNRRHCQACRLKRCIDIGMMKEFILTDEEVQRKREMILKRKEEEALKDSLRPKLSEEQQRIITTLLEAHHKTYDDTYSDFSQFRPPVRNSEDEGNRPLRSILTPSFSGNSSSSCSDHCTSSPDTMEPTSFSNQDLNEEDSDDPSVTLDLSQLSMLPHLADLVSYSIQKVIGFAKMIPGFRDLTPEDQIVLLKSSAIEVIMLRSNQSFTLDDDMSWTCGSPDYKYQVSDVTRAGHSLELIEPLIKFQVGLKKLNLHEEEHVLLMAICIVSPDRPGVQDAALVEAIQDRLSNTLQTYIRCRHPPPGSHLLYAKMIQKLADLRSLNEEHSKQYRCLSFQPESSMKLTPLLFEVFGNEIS
# Text: Purified 1α,24(S)-(OH)2 D2 was quantitated by photodiode array spectrophotometry and assayed in the radioreceptor assay.
# The purified 1α,24(R)-(OH)2 D2 and 1α,24(S)-(OH)2 D2 epimers were quantitated by ultraviolet spectroscopy. The concentration of 1α,24(R)-(OH)2 D2 required to produce the same displacement of ^3 H-1α,25-(OH)2 D3 tracer from the receptor was 20 to 30 times that required for 1α,24(S)-(OH)2 D2, as shown in FIG. 4.
# Human keratinocytes = experiment: Epidermal cell differentiation and proliferation testing; type: cell-based; conditions: 0.05 to 5 μg/ml; against ethanol control cultures
# Method: Human keratinocytes are cultured according to known modifications of the system originally described by Rheinwald and Green (Cell, vol. 6, p. 331 (1975)). The 1α,24(S)-dihydroxy vitamin D2, dissolved in ethanol, is added to cells to yield a variety of concentrations between 0.05 and 5 μg/ml with the ethanol concentration not to exceed 0.5% v/v. Control cultures are supplemented with ethanol at a final concentration of 0.5% v/v.
# Differentiation and proliferation of epidermal cells in culture is examined by:
# 1. quantitation of cornified envelopes;
# 2. quantitation of cell density of cells attached to disks;
# 3. monitoring transglutaminase activity; or
# 4. monitoring DNA synthesis by incorporation of ^3 H-thymidine.
# [2] = Dermatological testing: topical ointment in dermatitis patients; type: in vivo, human; conditions: ointment 10 μg per gram, twice daily, four to six weeks
# Method: Compositions containing 1α,24(S)-dihydroxy vitamin D2 are evaluated for therapeutic efficacy of the composition in the topical treatment of dermatitis (contact and ectopic). The composition evaluated is an ointment containing 10 μg of 1α,24-dihydroxy vitamin D2 per gram of ointment in a petrolatum-almond oil base. […] The patients are treated in an out-patient clinic. They are instructed to use the preparation two times a day.
# The ointment is as far as possible applied to a single lesion, or to an area of the disease. The ointment and its container are weighed before the treatment starts and returned with any unused contents for reweighing at the end of the treatment.
# The area of the lesion treated is estimated and recorded, and the lesion is photographed as required, together with suitable "control" lesions. The latter are preferably lesions of similar size and stage of development, either in the vicinity of the treated lesion or symmetrically contralateral. Relevant details of the photographic procedure are recorded so as to be reproduced when the lesions are next photographed (distance, aperture, angle, background, etc.). The ointment is applied twice daily and preferably left uncovered. The "control" lesions are left untreated, but if this is not possible, the treatment used on them is noted. […]
structure (smiles),measurement,setting,value
"C=C1/C(=C\C=C2/CCC[C@]3(C)[C@@H]([C@H](C)/C=C/[C@@](C)(O)C(C)C)CC[C@@H]23)C[C@@H](O)C[C@@H]1O [1α,24(S)-(OH)2 D2, 1α,24(S)-dihydroxy vitamin D2]",24-hour urinary calcium levels,[1],modest increases
same,Routinely monitored serum parameters,[1],no effect
same,Serum osteocalcin levels,[1],increases
same,IC50,"bovine thymus VDR; bovine thymus VDR radioreceptor assay, read-out: Half-maximal binding (converted)",~0.35 nM
same,"Affinity for VDR relative to 1α,25-(OH)2 D3","bovine thymus VDR; compared with 1α,25-(OH)2 D3",two-fold less competitive; also recorded: two-fold lower affinity
same,Cell density of attached cells,Human keratinocytes,fewer attached cells
same,Cornified envelopes,Human keratinocytes,more cornified envelopes
same,DNA synthesis (3H-thymidine incorporation),Human keratinocytes,lower DNA synthesis
same,Transglutaminase activity,Human keratinocytes,higher transglutaminase activity
same,Incidence of hypercalcemia,[2],insignificant incidence
same,"Lesion severity scores (erythema, scaling, thickness; 0 to 3)",[2]; against control lesions,lower scores than the control lesions
